Experimental findings from patent US8420606B2, “Method of utilizing physiological activity of rare saccharide and composition containing rare saccharide” (priority 2002, dated 2013) are described below.

One test relates to KS-1. Briefly: blood-system cancer cell strain proliferation, Coulter Counter, KS1. The class given is cell-based. Conditions: 0.05-50 mM, 7 days, D-glucose control. Here is the method: (2) Method: Total 6 kinds of cell strains, i.e., Myeloid (HL-60, THP-1, KG-1), T-cell (MT-2), and B-Cell (Daudi, KS-1), and 3 kinds of rare saccharides (i.e., D-psicose, D-altrose, and D-allose), were employed. The culture medium and the cells were prepared to be 1 mL in total and 1×10^5 in number, respectively. Then, the cell number at each of fourth day and seventh day was counted by using a Coulter Counter. Each rare saccharide was added at concentrations of 0.05, 0.5, 5 and 50 mM, while D-glucose was used as a control.
Culture Medium: FBS 10% added RPMI1460
Cultivation Conditions: 37° C., 5% CO2
Cultivation Vessel: FALCON, MULTIWELL, 12 wells
Number of Cultivation Days: 7 days
Saccharides Concentration: 0.05, 0.5, 5, 50 mM

The test system of a further test is livers of rats. Briefly: rat liver ischemia-reperfusion, survival. The note with it: liver ischemia 90 minutes then reperfusion; D-allose 0.2 g/kg perfused before the ischemia; usually only 30%. It counts as in vivo. Here is the method: When a surgical operation for intestinal organs, such as the liver, is performed, a blood flow is always temporarily stopped. This brings the intestinal organs into the ischemia state. When blood is started to flow again after the surgery, active oxygen is produced in large amount from leukocyte at that time, which is considered as one of major causes bringing about the organic injury. The inventors conducted an experiment through the steps of bringing the livers of rats into the ischemia state for a relatively long time, i.e., 90 minutes, and then reperfusing blood to examine the survival rate of the rats after 3 months depending on application or non-application of the rare saccharide. While the survival rate is usually only 30%, it increased to about 70% by perfusing D-allose at 0.2 g/kg before the ischemia. […] This effect is considered to be one factor making D-allose effective in organ protection.

The test system of a further test is rat intestinal tract. Briefly: glucose absorption in reversed intestinal tract. Conditions: D-psicose at concentration comparable to that of glucose. Here is the method:
To clarify an influence of D-psicose upon the absorption of glucose, the influence of D-psicose upon the absorption of glucose was analyzed by using a rat intestinal tract. The absorption of glucose was analyzed by measuring concentrations outside and inside a mucous membrane of an intestinal tract by a quantitative manner based on the glucose oxidase method. How the absorption of glucose changed under coexistence of D-psicose and glucose was measured. Further, how a sugar absorption system changed was analyzed by using an intestinal tract of a rat administrated with D-psicose for a long time. […] After the lapse of a certain time, the solution on the serous membrane side was sampled and the glucose concentration was measured. By adding D-psicose at various concentrations, an influence of D-psicose upon transport of glucose from the mucous membrane side to the serous membrane side was studied.

Another test deals with microglia migration. Briefly: brain ischemia model, number of appearing microglias. Conditions: 200 mg/kg femoral vein 5 minutes before and immediately after 5 minutes ischemia; after 1 week. The class given is in vivo, gerbil. Here is the method:
In this Example 11 described below, an influence of ketohexose belonging to the rare saccharides upon the number of microglias appearing with ischemia is examined. […] D-psicose was used as the ketohexose belonging to the rare saccharides. As a brain ischemia model, the bilateral common carotid artery of a male gerbil with weight of about 70 g was shut off for 5 minutes. In this model, neurons in the hippocampus CA1 area of a brain are peculiarly brought to ischemic cell necrosis.
Comparative studies were made on three exemplified groups, i.e., one group not subjected to ischemia (control: Sham), another group subject to ischemia+treatment with physiological saline, and still another group subject to ischemia+treatment with D-psicose.
The D-psicose treatment was performed through the steps of dissolving D-psicose in physiological saline to prepare a D-psicose solution with concentration of 200 mg/mL, and administrating the D-psicose solution to the ischemia model through the femoral vein in units of 200 mg/kg at 5 minuets before ischemia and immediately after the ischemia. The physiological saline treatment was performed by administering only physiological saline instead of the D-psicose solution. After 1 week from the ischemia, perfusion fixation was made and a frozen brain sample of 20 μm was prepared, followed by hematoxyline eosin dyeing.

On to `O=C[C@H](O)[C@H](O)[C@H](O)[C@H](O)CO` [D-allose], for which the “KS1 proliferation inhibitory effect” value with KS-1 is given as “having the inhibitory effect”; in the test on KS-1 (listed as allose), “showed a cell proliferation inhibitory effect at 59 mM”. For the same molecule, the “survival rate of the rats after 3 months” value in the test with livers of rats is reported as “about 70%”.

Consider `O=C(CO)[C@H](O)[C@H](O)[C@H](O)CO` [D-psicose], for which, in the test with rat intestinal tract, the “rise of glucose concentration on the serous membrane side” value was “significantly inhibited”. Moreover, the “number of appearing microglias” value with microglia migration is on record as “reduced”.
